Measured values published in paper PMC9880438, “Pharmacokinetics of active compounds of a Terminalia chebula Retz. Ethanolic extract after oral administration rats using UPLC-MS/MS” (Frontiers in Pharmacology, 2023).

Columns and labels:
[1] = tested on: HepG2 cells; set-up: method as in Achari et al., 2011; conditions: 50 μM; ref Achari et al., 2011; cited from earlier work
[2] = Stability of QC samples of the analytes in rat plasma under storage conditions; format: physicochemical; conditions: n = 6
Procedure: Preparation of quality control (QC) samples with three concentrations (low, medium, and high) of 16, 160, and 3,200 ng/ml for ellagic acid; 1.6, 16, 320 ng/ml for protocatechuic acid, ethyl gallate and 1,2,3,4,6-O-pentagalloylglucose; 40, 400 and 8,000 ng/ml for chebulic acid, gallic acid, corilagin and chebulinic acid and 160, 1,600, 32000 ng/ml for chebulagic acid. Both QC samples and stock solutions were stored in a refrigerator at 4°C.
Under variable treatment conditions: stored for 12 h at auto-sampler, for 4 hours at room temperature, under three freeze-thaw cycles, and kept at −80°C for 7 days, quality control samples were analyzed to assess the stability of the nine analytes in plasma.

[3] = Pharmacokinetic study in rats after oral administration of TC extracts (UPLC-MS/MS of plasma); conditions: male, Sprague-Dawley, rat, plasma, po, 10 g/kg
Procedure: UPLC-MS/MS system was used for analysis and monitoring, which consisted primarily of an Agilent 1290 UPLC system (Agilent Technologies, Germany) and an Agilent 6,470 series triple quad (TQ) mass spectrometer (MS) (Agilent Technologies, Singapore) equipped with an electrospray ionization source.
Separation was carried out on an ACQUITY UPLC® HSS T3 column (2.1 × 100 mm, 1.8 μm), and temperature in the column was kept at 20°C. In the mobile phase, 0.1% formic acid in water and acetonitrile were used as solvents A and B, respectively. Gradient elution was performed as follows: 1%–5% B at 0–3 min; 5%–30% B at 3–4 min; 30%–40% B at 4–8 min; 40%–100% B at 8–9 min; 100%–100% B at 9–12 min. The flow rate was set at 0.3 ml/min and the injection volume was 10 μL.
Multiple reaction monitoring (MRM) was used for quantitative analysis in negative (−) ionization mode. The mass spectrometric parameters were set as follows: drying gas (N2) temperature was 300°C; gas (N2) flow rate was 7 L/min; atomizer pressure was 35 psi; sheath gas flow was 11 L/min and capillary voltage was 3800 V. The specific mass spectrometric parameters of the precursor ion, product ion, fragmentor, collision energy, and ion modes of the nine compounds and IS are shown in Table 1.
The plasma sample (100 μl) was sequentially spiked with 20 μl IS solutions (caffeic acid, 1,000 ng/ml); 20 μL methanol, and 10 μl formic acid, then vortex-mixed for 1 min. The mixture was precipitated protein with 1,000 μl methanol by vortex mixing for 3 min. The supernatant was collected into a 1.5 ml clean centrifuge tube after centrifugation at for 10 min 14,000 rpm, and evaporated under a nitrogen stream until dry. After that, the residue was redissolved in 100 μl methanol, vortex-mixed for 3 min, then centrifuged for 10 min at 14,000 rpm. 10 μl analyte was injected into the UPLC-MS/MS system.
In this study, six of male rats were used, given free access to water, and fasted for 12 h before the experimental period. The TC extracts were dissolved in 0.5% CMC-Na aqueous solution as a suspension at a concentration of 1 g/ml. A dose of 10 g/kg of the suspension was administered to the rats orally, the blood samples of approximately 300 μL were drawn from the fundus venous plexus of rats pre- and post-oral administration at 0.00, 0.08, 0.17, 0.25, 0.50, 0.75, 1, 2, 4, 6, 8, 10, 12, 24, 36, 48, 60, 72, 84, 96, 120, 144 and 168 h, respectively. For analysis, the plasma supernatants collected from the centrifuged plasma were frozen at −80°C after centrifugation for 10 min at 6,000 rpm.
Data were expressed as mean ± standard deviation (mean ± SD). MassHunter Workstation software (version B.09.00) was quantitatively used to calculate the plasma concentrations of nine analytes. To evaluate the specific pharmacokinetic parameters, DAS Software (DAS 3.0, Medical College of Wannan, China) was used to process the pharmacokinetic results.

O=C(O)C[C@@H]1C(=O)O[C@H]2[C@@H]3OC(=O)c4cc(O)c(O)c(O)c4-c4c(cc(O)c(O)c4O)C(=O)OC[C@H]2O[C@@H](OC(=O)c2cc(O)c(O)c(O)c2)[C@@H]3OC(=O)c2cc(O)c(O)c3c2[C@H]1[C@H](O)C(=O)O3 [Chebulagic acid, chebulagic acid]
Sensitivity of HepG2 cells towards Dox induced cytotoxicity [1]: increased the sensitivity | Measured concentration after storage ([2]; spiked 160 ng/mL, autosampler for 12 h): 145.5 ± 16.4 ng/mL | Measured concentration after storage ([2]; spiked 160 ng/mL, room temperature for 4 h): 160.8 ± 6.2 ng/mL | Measured concentration after storage ([2]; spiked 160 ng/mL, three freeze-thaw cycles): 167.9 ± 7.8 ng/mL | Measured concentration after storage ([2]; spiked 160 ng/mL, −80°C for 7 days): 168.0 ± 4.2 ng/mL | Measured concentration after storage ([2]; spiked 1,600 ng/mL, autosampler for 12 h): 1,448.9 ± 70.5 ng/mL | Measured concentration after storage ([2]; spiked 1,600 ng/mL, room temperature for 4 h): 1,465.3 ± 158.2 ng/mL | Measured concentration after storage ([2]; spiked 1,600 ng/mL, three freeze-thaw cycles): 1,391.9 ± 61.5 ng/mL | Measured concentration after storage ([2]; spiked 1,600 ng/mL, −80°C for 7 days): 1,512.8 ± 65.1 ng/mL | Measured concentration after storage ([2]; spiked 32000 ng/mL, autosampler for 12 h): 34277.3 ± 2,721.2 ng/mL | Measured concentration after storage ([2]; spiked 32000 ng/mL, room temperature for 4 h): 31970.0 ± 1,256.3 ng/mL | Measured concentration after storage ([2]; spiked 32000 ng/mL, three freeze-thaw cycles): 33770.8 ± 3,365.5 ng/mL | Measured concentration after storage ([2]; spiked 32000 ng/mL, −80°C for 7 days): 31615.2 ± 953.8 ng/mL | AUC [3]: 231 ± 64.6 µg·h/mL | AUC(0-inf) [3]: 234 ± 65.7 µg·h/mL | Cmax [3]: 4980 ng/mL | MRT [3]: 49.8 ± 4.87 h | MRT inf [3]: 51.8 ± 5.3 h | Tmax [3]: 5.67 ± 3.67 h | half-life [3]: 20 ± 2.51 h
